Experimental data taken from patent US20110263707A1, “MOSQUITO REPELLENT” (BIO & HNT, INC., priority 2007, published 2011).
Values joined by “and” are separate entries in the source; they are usually repeats but may differ in a detail not shown here. Identical values can stand only once.

System: Aedes aegypti
Assay: Examination of repellent activity using skin test (treated forearm in cage of mated female mosquitoes)
Assay type: in vivo
Conditions: for Effective repellency duration (average ± standard deviation): protection time until arm bitten by two cumulative mosquitoes
Description: In this embodiment, Aedes aegypti was used test mosquitoes. The Aedes aegypti was supplied from Korea Research Institute of Bioscience and Biotechnology and reared indoor from generation to generation. The larvae of the Aedes aegypti were reared in a plastic container of 22×14×7 cm containing distilled water with a one to one mixture of chicken feed and yeast. Mosquito pupae were transferred into a paper cup and then placed in a rearing cage to emerge as adults. Here, the rearing cage was constructed with metal net. Males and females of the adult mosquitoes at one to one ratio were put in a rearing cage for two or three days for mating. The female mosquitoes were then used for repellency tests. Eight percent (8%) sugar water was supplied for the adult mosquitoes. The following rearing conditions were maintained: light condition of 16 h:8 h (day:night), temperature of 27±2° C., and relative humidity of 80±10%. In order to examine effectiveness of the mosquito repellents of the prepared sample solutions, one (1) […] of a sample solution was uniformly applied, using a metal rod, on a forearm of a volunteer human test subject between a wrist and an elbow. Thereafter, the arm treated with the test solution was inserted in a bioassay cage constructed with Plexiglass of 50×50×50 cm containing approximately 100 mated female mosquitoes. The number of mosquitoes trying to bite was recorded for three minutes in every thirty minutes for up to 4 hours. The time required to get the arm bitten by two cumulative mosquitoes was regarded as effective repellency duration. A net window of 40×40 cm was present at each side and top of the Plexiglass bioassay cage to allow air ventilation. A 15×15 cm hole was prepared at the front side of the Plexiglass bioassay cage and a long net sleeve was attached to the hole so that the test arm could be put into the cage for repellency test. At the beginning of each repellency test, an arm treated with solvent only was placed in the bioassay cage containing mosquitoes, in order to examine blood feeding activity of the mated female test mosquitoes. This test with the bioassay cage was carried out only when the arm was bitten by at least two mosquitoes for initial three minutes. In Table 3 and Table 4, the repellent efficiency was calculated using the following Equation 1. [formula]

[1] = concentration 2% (0.05 mg/cm^3), 30 minutes
[2] = concentration 2% (0.05 mg/cm^3), 60 minutes
[3] = concentration 2% (0.05 mg/cm^3), 90 minutes
[4] = concentration 2% (0.05 mg/cm^3), 120 minutes
[5] = concentration 2% (0.05 mg/cm^3), 150 minutes
[6] = concentration 2% (0.05 mg/cm^3), 180 minutes
[7] = concentration 2% (0.05 mg/cm^3), 210 minutes
[8] = concentration 2% (0.05 mg/cm^3), 240 minutes
[9] = concentration 2% in 91% isopropyl alcohol (0.05 mg/cm^3)
[10] = concentration 10% (0.25 mg/cm^3), 30 minutes
[11] = concentration 10% (0.25 mg/cm^3), 60 minutes
[12] = concentration 10% (0.25 mg/cm^3), 90 minutes
[13] = concentration 10% (0.25 mg/cm^3), 120 minutes
[14] = concentration 10% (0.25 mg/cm^3), 150 minutes
[15] = concentration 10% (0.25 mg/cm^3), 180 minutes
[16] = concentration 10% (0.25 mg/cm^3), 210 minutes
[17] = concentration 10% (0.25 mg/cm^3), 240 minutes
[18] = concentration 10% in 91% isopropyl alcohol (0.25 mg/cm^3), maximum measurement time 240 minutes

**Q.** `CCN(CC)C(=O)c1cccc(C)c1` [DEET, N,N-diethyl-m-toluamide] was tested. Which “Repellent efficiency (%) per time” value [1] did it give?
**A.** Its value is 100%.

**Q.** What about the “Repellent efficiency (%) per time” value [2] of the same molecule?
**A.** The value was 0%.

**Q.** And the “Repellent efficiency (%) per time” value [3]?
**A.** Its value is 0%.

**Q.** What about the “Repellent efficiency (%) per time” value [4] of the same molecule?
**A.** Its value is 0%.

**Q.** What about the “Repellent efficiency (%) per time” value [5] of the same molecule?
**A.** Its value is 0%.

**Q.** What about the “Repellent efficiency (%) per time” value [6] of the same molecule?
**A.** Its value is 0%.

**Q.** And the “Repellent efficiency (%) per time” value [7]?
**A.** Its value is 0%.

**Q.** And the “Repellent efficiency (%) per time” value [8]?
**A.** The value was 0%.

**Q.** What about the “Effective repellency duration (average ± standard deviation)” value [9] of the same molecule?
**A.** The value was 70 min and 70 ± 10.0 min.

**Q.** And the “Repellent efficiency (%) per time” value [10]?
**A.** The value was 100%.

**Q.** And the “Repellent efficiency (%) per time” value [11]?
**A.** Its value is 100%.

**Q.** And the “Repellent efficiency (%) per time” value [12]?
**A.** Its value is 100%.

**Q.** And the “Repellent efficiency (%) per time” value [13]?
**A.** The value was 100%.

**Q.** And the “Repellent efficiency (%) per time” value [14]?
**A.** Its value is 87.5%.

**Q.** And the “Repellent efficiency (%) per time” value [15]?
**A.** Its value is 81.3%.

**Q.** What about the “Repellent efficiency (%) per time” value [16] of the same molecule?
**A.** The value was 78.1%.

**Q.** What about the “Repellent efficiency (%) per time” value [17] of the same molecule?
**A.** The value was 71.9%.

**Q.** And the “Effective repellency duration (average ± standard deviation)” value [18]?
**A.** Its value is 218 min and 218 ± 10.8 min.

**Q.** Which results are given for `CCC(C)OC(=O)N1CCCCC1CCO` (centres unmarked) [Picadirin]?
**A.** Repellent efficiency (%) per time [10]: 85.0%; Repellent efficiency (%) per time [11]: 85.0%; Repellent efficiency (%) per time [12]: 85.0%; Repellent efficiency (%) per time [13]: 80.0%; Repellent efficiency (%) per time [14]: 75.0%; Repellent efficiency (%) per time [15]: 72.5%; Repellent efficiency (%) per time [16]: 62.5%; Repellent efficiency (%) per time [17]: 47.5%; Effective repellency duration (average ± standard deviation) [18]: 158 min and 158 ± 27.5 min

**Q.** Which “Repellent efficiency (%) per time” value [1] does the source give for `CC(C)=CCC/C(C)=C\C(=O)O` [Neric acid, (Z,E)-3,7-dimethyl-2,6-octadienoic acid] here?
**A.** Its value is 100%.

**Q.** And the “Repellent efficiency (%) per time” value [2]?
**A.** Its value is 83.1%.

**Q.** And the “Repellent efficiency (%) per time” value [3]?
**A.** The value was 70.4%.

**Q.** What about the “Repellent efficiency (%) per time” value [4] of the same molecule?
**A.** Its value is 52.1%.

**Q.** And the “Repellent efficiency (%) per time” value [5]?
**A.** The value was 39.4%.

**Q.** And the “Repellent efficiency (%) per time” value [6]?
**A.** Its value is 26.8%.

**Q.** And the “Repellent efficiency (%) per time” value [7]?
**A.** Its value is 18.3%.

**Q.** What about the “Repellent efficiency (%) per time” value [8] of the same molecule?
**A.** The value was 14.1%.

**Q.** And the “Effective repellency duration (average ± standard deviation)” value [9]?
**A.** The value was 106 ± 16.3 min.

**Q.** And the “Effective repellency duration (average ± standard deviation)” value (concentration 2% in 91% isopropyl alcohol (0.05 mg/cm^3), listed as neric acid)?
**A.** Its value is 106 min.

**Q.** And the “Repellent efficiency (%) per time” value [10]?
**A.** The value was 100%.

**Q.** And the “Repellent efficiency (%) per time” value [11]?
**A.** Its value is 100%.

**Q.** What about the “Repellent efficiency (%) per time” value [12] of the same molecule?
**A.** The value was 100%.

**Q.** And the “Repellent efficiency (%) per time” value [13]?
**A.** Its value is 100%.

**Q.** And the “Repellent efficiency (%) per time” value [14]?
**A.** Its value is 100%.

**Q.** And the “Repellent efficiency (%) per time” value [15]?
**A.** The value was 100%.

**Q.** And the “Repellent efficiency (%) per time” value [16]?
**A.** Its value is 100%.

**Q.** What about the “Repellent efficiency (%) per time” value [17] of the same molecule?
**A.** The value was 95.3%.

**Q.** What about the “Effective repellency duration (average ± standard deviation)” value [18] of the same molecule?
**A.** The value was 240 ± 0 min.

**Q.** And the “Effective repellency duration (average ± standard deviation)” value (concentration 10% in 91% isopropyl alcohol (0.25 mg/cm^3), maximum measurement time 240 minutes, listed as neric acid)?
**A.** Its value is 240 min.
